Entries after “also recorded” stand apart in the source; their conditions may differ. Like-named read-outs stand apart in the source and are kept apart here. Each block holds one compound with its values, some of them ahead of it.
Experiments:
[1] = system: patients with Crohn's disease; settings: cited from earlier work
[2] = system: HMVECL monolayers; assay: Endothelial permeability assay (10 kDa dextran flux); type: cell-based, human; settings: for reduction of TNFα/hyperthermia-induced permeability increase: HMVECL, 10 kDa dextran, TNFα and 39.5° C. for 6 h
Procedure: Endothelial permeability assay: Permeability of HMVECL monolayers was assessed by measuring transendothelial flux of 10 kDa dextran conjugated to Cascade blue fluorescent dye for 30 min at 37° C. in Matrigel-coated 3 μm pore size Transwell plates.

[3] = biological target: ERK2 (Homo sapiens, UniProt P28482); assay: DSF, binding to ERK2; settings: for ΔTm at 100 µM / ERK2 ΔTm (° C.) @100 μM: change in melting temperature relative to DMSO control in DSF assay; for stabilization of ERK2 in DSF (binding), in words: test compounds at 10-100 μM
ERK2, sequence (P28482 whole entry, species assumed): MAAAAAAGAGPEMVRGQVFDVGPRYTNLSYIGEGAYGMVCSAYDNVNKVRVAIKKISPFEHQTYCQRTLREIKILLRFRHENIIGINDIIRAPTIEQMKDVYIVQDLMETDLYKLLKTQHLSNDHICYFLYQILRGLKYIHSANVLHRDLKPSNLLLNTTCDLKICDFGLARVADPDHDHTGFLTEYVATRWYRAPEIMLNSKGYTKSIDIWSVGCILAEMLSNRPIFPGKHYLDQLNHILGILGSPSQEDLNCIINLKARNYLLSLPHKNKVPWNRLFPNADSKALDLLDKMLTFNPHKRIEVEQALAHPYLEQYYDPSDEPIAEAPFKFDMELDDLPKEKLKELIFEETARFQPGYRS

[4] = system: IL-8-directed neutrophil TEM through HMVECLs; assay: Neutrophil transendothelial migration (TEM) assay; type: cell-based, human; settings: HMVECLs preincubated at 39.5° C. for 6 h
[5] = system: LPS/hyperthermia-induced ALI in CD1 mice; assay: Mouse i.t. LPS/FRH-induced acute lung injury model; settings: for mice that died within 24 h: single i.p. injection of 100-1000 μg UM101, 1000 μg UM60 or 1000 μg SB203580, 30 min before i.t. 50 μg LPS and hyperthermia; for reduction of lavage neutrophil content vs. DMSO-treated controls: mouse LPS/hyperthermia ALI, 24 h
[6] = system: HMVECLs; assay: Cytotoxicity assay (MTS, LDH release); type: cell-based, human; settings: 100 μM for 48 h
Procedure: Cytotoxicity of HMVECL exposed to 10-100 μM of each compound is analyzed by MTS assay (Promega), LDH release (Promega), and immunoblotting for activated caspase-3 (Cell Signaling).
Cytotoxicity assay: Cytotoxicity was monitored in parallel HMVEC-L monolayers established in 96-well culture plates using a colorimetric assay that measured reduction of 3-(4,5-dimethylthiazol-2-yl)-5-(3-carboxymethoxyphenyl)-2-(4-sulfophenyl)-2H-tetrazolium (MTS) to a formazan dye (CellTiter 96™; Promega; Madison, WI) according to the manufacturer's protocol and quantifying product formation by measuring absorption at 490 nm.

[7] = biological target: T1, unphosphorylated recombinant human p38α (Homo sapiens, UniProt Q16539); assay: Differential scanning fluorimetry (DSF), binding to p38α; settings: for stabilization of p38α in DSF (binding), in words: DSF melting temperature, concentration series
T1 construct: made in house; host or cells: E. coli BL21
T1 sequence (Q16539 whole entry): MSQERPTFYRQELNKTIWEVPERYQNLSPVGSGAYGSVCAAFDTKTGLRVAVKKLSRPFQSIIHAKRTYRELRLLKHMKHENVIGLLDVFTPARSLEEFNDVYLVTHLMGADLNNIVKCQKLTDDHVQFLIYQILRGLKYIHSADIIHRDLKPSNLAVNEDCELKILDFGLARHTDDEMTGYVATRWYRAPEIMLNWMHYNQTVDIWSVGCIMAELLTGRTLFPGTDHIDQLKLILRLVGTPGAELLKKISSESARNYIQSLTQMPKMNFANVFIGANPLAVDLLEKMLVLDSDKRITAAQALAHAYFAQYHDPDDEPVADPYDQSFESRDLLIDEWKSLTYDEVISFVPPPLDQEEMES

[8] = biological target: T2, p38α (Homo sapiens, UniProt Q16539); assay: STD-NMR, binding to p38α; settings: 200 μM UM101, 5 μM p38 protein
T2 construct: made in house; host or cells: E. coli BL21
T2 sequence (Q16539 whole entry): as above
Procedure: (§1) Spectra were recorded on an Agilent DD2 500-MHz spectrometer equipped with a 5-mm inverse HFCN probe head at 300 K. During each transient, the protein was saturated with a series of 58 […]-shaped pulses (50 ms, 1 ms delay between pulses) using the vendor-supplied STD-ES pulse sequence, for a total saturation time of 3 seconds. The on-resonance irradiation of protein was done at 0.5 ppm and off-resonance irradiation at 30 ppm. The vendor-supplied WATERGATE pulse sequence was used to suppress the water signal in the STD spectrum. The on-resonance and off-resonance pulse sequences were subtracted internally. A total of 16,384 transients were collected for each STD experiment with a 1 second delay between acquisitions, 6000 Hz spectral width, and 1.3 second acquisition time.

[9] = system: LPS-induced cytokine expression in PMA-differentiated THP1 cells; assay: LPS-induced cytokine expression, PCR-based cytokine array; type: cell-based, human; settings: 25 μM SB203580 or 10, 25, or 100 μM UM101
[10] = biological target: T3, p38α mutant (R49K/HL107-8TF/K165R) (Homo sapiens, UniProt Q16539, H107T/K165R/L108F/R49K); assay: DSF, binding to target-disrupted p38α mutant; settings: compared with wild-type p38α
T3 construct: made in house; host or cells: E. coli BL21
T3 sequence (Q16539 whole entry R49K/H107T/L108F/K165R): as the sequence (Q16539 whole entry) above, with R49K, H107T, L108F, K165R counted along it

[11] = biological target: T4, mutated p38α (Homo sapiens, UniProt Q16539, H107T/K165R/L108F/R49K); assay: STD-NMR, binding to mutated p38α; settings: 200 μM UM101, 5 μM p38 protein
T4 construct: made in house; host or cells: E. coli BL21
T4 sequence (Q16539 whole entry R49K/H107T/L108F/K165R): as the sequence (Q16539 whole entry) above, with R49K, H107T, L108F, K165R counted along it
Procedure: as §1

[12] = biological target: T5, p38β (Homo sapiens, UniProt Q15759); assay: DSF, binding to p38β; settings: DSF melting temperature, concentration series
T5 construct: HA (N); made in house; host or cells: E. coli BL21
T5 sequence (Q15759 whole entry): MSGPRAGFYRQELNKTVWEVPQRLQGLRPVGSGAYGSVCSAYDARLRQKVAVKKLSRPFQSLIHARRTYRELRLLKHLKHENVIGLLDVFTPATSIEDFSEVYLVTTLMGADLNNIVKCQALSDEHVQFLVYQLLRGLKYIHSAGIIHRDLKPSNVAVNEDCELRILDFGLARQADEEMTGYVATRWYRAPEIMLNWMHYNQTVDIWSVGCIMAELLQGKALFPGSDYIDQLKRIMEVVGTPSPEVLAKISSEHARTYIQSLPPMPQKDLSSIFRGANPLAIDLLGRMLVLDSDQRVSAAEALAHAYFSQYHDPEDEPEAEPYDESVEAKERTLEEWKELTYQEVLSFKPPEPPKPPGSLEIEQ

[13] = biological target: T5, p38β; assay: STD-NMR, binding to p38β; settings: 200 μM UM101, 5 μM p38 protein
Procedure: as §1

[14] = system: p38-dependent phosphorylation of MK2 and Stat-1 in HeLa cells; assay: Inhibition of substrate phosphorylation (immunoblot); type: cell-based, human; settings: 10 μM SB203580 or 50 μM UM101 for 30 min
From the text: Cell extracts prepared in RIPA buffer containing protease and phosphatase inhibitors were resolved by SDS-PAGE, transferred to PVDF membrane, blocked with 5% nonfat dry milk, probed with primary antibodies against phosphorylated MK2 and Stat-1, and total p38α as a loading control. Bands were detected using secondary antibodies conjugated to infrared fluorophores and infrared fluorescence imaging (Odyssey; LICOR).

[15] = system: rheumatoid arthritis; settings: two trials in rheumatoid arthritis; cited from earlier work
[16] = system: patients at-risk for ARDS; settings: early phase IIa trial, cited from earlier work
[17] = system: patients with hypercholesterolemia; settings: cited from earlier work
[18] = 100 μM, change in melting temperature relative to DMSO control in DSF assay, read-out: p38α ΔTm (° C.) @100 μM
[19] = added at 100 μM, DSF, read-out: increase in melting temperature of p38α
[20] = 100 μM, change in melting temperature relative to DMSO control in DSF assay

ERK2 ΔTm (° C.) @100 μM [3]: 0.412 °C
p38α ΔTm (° C.) @100 μM [7, 20]: −0.05 °C
Compound: COc1ccccc1N1CCN(CCCCNS(=O)(=O)c2ccc(C)cc2)CC1 [compound 2]

ERK2 ΔTm (° C.) @100 μM [3]: 0.337 °C
stabilization of ERK2 in DSF (binding), in words [3]: also stabilized ERK2
p38α ΔTm (° C.) @100 μM [7, 20]: 0.282 °C
Compound: O=C1NCCN1CCNS(=O)(=O)c1ccc(S(=O)(=O)c2ccccc2)s1 [compound 3]
stabilization of p38α in DSF (binding), in words [7]: concentration-dependent stabilization of p38α

ERK2 ΔTm (° C.) @100 μM [3]: 0.628 °C
stabilization of ERK2 in DSF (binding), in words [3]: also stabilized ERK2
p38α ΔTm (° C.) @100 μM [7, 20]: 0.808 °C
Compound: CN1CCN(c2ccc(CNS(=O)(=O)c3ccc(-c4ccon4)s3)cc2)CC1 [compound 5]
stabilization of p38α in DSF (binding), in words [7]: concentration-dependent stabilization of p38α

ERK2 ΔTm (° C.) @100 μM [3]: 0.531 °C
p38α ΔTm (° C.) @100 μM [7, 20]: −0.07 °C
Compound: Cc1nc(-c2ccc(S(=O)(=O)NCCCN)s2)cs1 [compound 8]

ERK2 ΔTm (° C.) @100 μM [3]: 0.390 °C
p38α ΔTm (° C.) @100 μM [7, 20]: 0.005 °C
Compound: CS(=O)(=O)N1CCN(c2ncccc2C(F)(F)F)CC1 [compound 13]

ERK2 ΔTm (° C.) @100 μM [3]: 0.361 °C
p38α ΔTm (° C.) @100 μM [7, 20]: −0.233 °C
Compound: O=S(=O)(CCS(=O)(=O)c1ccccn1)c1ccc(Cl)cc1 [compound 69]

ERK2 ΔTm (° C.) @100 μM [3]: −1.632 °C
p38α ΔTm (° C.) @100 μM [7, 20]: −1.084 °C
Compound: O=C(CSc1cccs1)NCCSCc1ccco1 [compound 146]

ERK2 ΔTm (° C.) @100 μM [3]: 0.133 °C
p38α ΔTm (° C.) @100 μM [7, 20]: −0.171 °C
Compound: Cc1nc(S(=O)(=O)NCc2cc(F)cc3c2OCOC3)cn1C [compound 150]

Second part, the compound before the results:

Compound: Cc1ccc(-n2nc(C(C)(C)C)cc2NC(=O)Nc2ccc(OCCN3CCOCC3)c3ccccc23)cc1 [BIRB 796]
clinical effect in Crohn's disease [1]: no clinical effect
serum CRP levels [1]: transiently reduced

Compound: O=C1c2cc(S(=O)(=O)NCCO)ccc2-c2ccc(S(=O)(=O)NCCO)cc21 [UM60, N2,N7-di(2-hydroxyethyl)-9-oxo-9H-2,7-fluorenedisulfonamide]
reduction of TNFα/hyperthermia-induced permeability increase ([2]; 10 μM): no effect
reduction of TNFα/hyperthermia-induced permeability increase ([2]; 25 μM): no effect
reduction of TNFα/hyperthermia-induced permeability increase ([2]; 100 μM): 71%
ΔTm at 100 µM [3]: 0.195 °C
stabilization of ERK2 in DSF (binding), in words [3]: not ERK2
reduction of hyperthermia-augmented neutrophil TEM ([4]; 10 μM): 18%
reduction of hyperthermia-augmented neutrophil TEM ([4]; 25 μM): 89%
reduction of hyperthermia-augmented neutrophil TEM ([4]; 50 μM): less than baseline levels
mice that died within 24 h [5]: Four of six
toxicity in LDH release and MTS assays [6]: Neither compound was toxic
ΔTm at 100 µM [7, 18]: 0.735 °C
stabilization of p38α in DSF (binding), in words [7]: stabilized p38α
ΔTm at 100 µM [7, 19]: ~0.7 °C

Compound: O=C(Nc1ccc(CN2CCS(=O)(=O)CC2)cc1)c1ccc(Cl)cc1 [UM101, 4-chloro-N-{4-[(1,1-dioxo-1 lambda˜6˜,4-thiazinan-4-yl)methyl]phenyl}benzamide]
interaction with p38α in STD-NMR, in words [8]: confirmed specific UM101 binding to p38α; also recorded: protons in both aromatic rings of UM101 interact with p38α
LPS-stimulated genes of the array (16) whose expression was inhibited, in words [9]: inhibited expression of all SB203580-inhibited genes except TNFSF9
reduction of TNFα/hyperthermia-induced permeability increase ([2]; 10 μM): 74%
reduction of TNFα/hyperthermia-induced permeability increase ([2]; 25 μM): 89%
reduction of TNFα/hyperthermia-induced permeability increase ([2]; 100 μM): > 100%
endothelial barrier stabilization compared with SB203580, in words ([2]; HMVECL barrier assays (FIG. 2a, 2b)): more effectively stabilized endothelial barriers than SB203580
ΔTm at 100 µM [3]: 0.0175 °C
stabilization of ERK2 in DSF (binding), in words [3]: not ERK2
binding to p38α mutant with four of ten target pocket amino acids substituted, in words [10]: abrogated UM101 binding; also recorded: no UM101-binding
reduction of hyperthermia-augmented neutrophil TEM ([4]; 10 μM): 95%
reduction of hyperthermia-augmented neutrophil TEM ([4]; 25 μM): less than baseline levels
reduction of hyperthermia-augmented neutrophil TEM ([4]; 50 μM): less than baseline levels
interaction with mutated p38α in STD-NMR, in words [11]: much weaker
stabilization of p38β in DSF (binding), in words [12]: not p38β; also recorded: only stabilized p38α
reduction of lavage neutrophil content vs. DMSO-treated controls ([5]; 100 μg i.p.): 44.4%
reduction of lavage neutrophil content vs. DMSO-treated controls ([5]; 300 μg i.p.): 49.5%
reduction of lavage neutrophil content vs. DMSO-treated controls ([5]; 500 μg i.p.): 55.3%
reduction of lavage neutrophil content vs. DMSO-treated controls ([5]; 1000 μg i.p.): 54%
tolerability and potency compared with SB203580 in experimental ALI, in words ([5]; mouse LPS/FRH-induced ALI): well tolerated and more potent than SB203580 in mitigating experimental ALI; also recorded: more potent than SB203580 in reducing neutrophil and protein accumulation in BAL
mice that died within 24 h [5]: All sixteen UM101-pretreated mice survived
interaction with p38β in STD-NMR, in words [13]: much weaker
toxicity in LDH release and MTS assays [6]: Neither compound was toxic
anisomycin-stimulated phosphorylation of MK2, in words [14]: partial inhibition of MK2 phosphorylation
anisomycin-stimulated phosphorylation of Stat-1, in words [14]: reduced
anisomycin-stimulated phosphorylation of MK2, in words ([14]; listed as UM1010): reduced
ΔTm at 100 µM [7, 18]: 0.667 °C
stabilization of p38α in DSF (binding), in words [7]: concentration-dependent increase in melting temperature of p38α; also recorded: only stabilized p38α
ΔTm at 100 µM [7, 19]: ~0.7 °C

Compound: NC(=O)c1ccc(N(C(N)=O)c2c(F)cccc2F)nc1-c1ccc(F)cc1F [VX-702]
proportion of treated subjects with ACR20 symptom score vs. placebo [15]: small increases

Compound: CN1CCN(CC(=O)Nc2ccc(S(N)(=O)=O)cc2)CC1 [compound 4]
ERK2 ΔTm (° C.) @100 μM [3]: 0.452 °C
p38α ΔTm (° C.) @100 μM [7, 20]: 0.065 °C

Compound: O=S(=O)(c1ccccc1)N(Cc1ccccn1)Cc1ccccn1 [compound 16]
ERK2 ΔTm (° C.) @100 μM [3]: 0.444 °C
p38α ΔTm (° C.) @100 μM [7, 20]: −0.052 °C

Compound: O=S(=O)(NCc1csc(-c2cccs2)n1)c1ccc2c(c1)CCO2 [compound 23]
ERK2 ΔTm (° C.) @100 μM [3]: −0.598 °C
p38α ΔTm (° C.) @100 μM [7, 20]: −0.488 °C

Compound: Cc1cc(F)ccc1-c1nc(NC(CO)CO)nc2c1ccc(=O)n2-c1c(F)cccc1F [dilmapimod]
serum C-reactive protein (CRP) levels ([16]; patients at-risk for ARDS): modestly reduced
safety in patients at-risk for ARDS [16]: safe at the doses administered

Compound: Cc1c(F)cc(C(=O)NC2CC2)cc1-c1ccc(C(=O)NCC(C)(C)C)cn1 [losmapimod]
serum CRP [17]: reduced
vascular relaxation [17]: improved

Source: patent US11911393B2, “Non-catalytic substrate-selective p38alpha-specific MAPK inhibitors with endothelial-stabilizing and anti-inflammatory activity, and methods of use thereof” (University of Maryland, Baltimore, priority 2016, dated 2024)
